32 compounds from ChEMBL document CHEMBL1128040, “Acyl CoA:cholesterol acyltransferase (ACAT) inhibitors: heterocyclic bioisosteres for the urea group in DuP 128” (Bioorg Med Chem Lett, 1995) can be followed below.

For assay [1], the target named is T1, Sterol O-acyltransferase 1 (Mus musculus, UniProt Q61263).
T1 sequence (Q61263 whole entry): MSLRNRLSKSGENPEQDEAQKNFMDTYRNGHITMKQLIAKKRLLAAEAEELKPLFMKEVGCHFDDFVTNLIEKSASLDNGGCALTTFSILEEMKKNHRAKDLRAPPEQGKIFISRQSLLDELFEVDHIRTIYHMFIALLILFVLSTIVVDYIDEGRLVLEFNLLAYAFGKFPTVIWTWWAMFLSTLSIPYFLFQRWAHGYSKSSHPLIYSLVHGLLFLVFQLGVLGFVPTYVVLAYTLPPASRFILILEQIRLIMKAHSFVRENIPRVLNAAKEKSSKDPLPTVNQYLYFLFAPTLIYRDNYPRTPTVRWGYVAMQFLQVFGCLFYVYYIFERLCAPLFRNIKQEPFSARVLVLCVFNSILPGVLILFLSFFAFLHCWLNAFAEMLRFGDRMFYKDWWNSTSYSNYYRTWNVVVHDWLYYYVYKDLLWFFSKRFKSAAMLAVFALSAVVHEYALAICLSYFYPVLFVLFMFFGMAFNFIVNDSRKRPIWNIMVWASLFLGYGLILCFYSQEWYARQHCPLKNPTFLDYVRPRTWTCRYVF
Put plainly: Inhibition of Acyl coenzyme A:cholesterol acyltransferase in J774 Macrophage cell culture. The class given is cell-based.

Assay [2] deals with T2, Sterol O-acyltransferase 1 (Rattus norvegicus, UniProt O70536).
T2 sequence (O70536 whole entry): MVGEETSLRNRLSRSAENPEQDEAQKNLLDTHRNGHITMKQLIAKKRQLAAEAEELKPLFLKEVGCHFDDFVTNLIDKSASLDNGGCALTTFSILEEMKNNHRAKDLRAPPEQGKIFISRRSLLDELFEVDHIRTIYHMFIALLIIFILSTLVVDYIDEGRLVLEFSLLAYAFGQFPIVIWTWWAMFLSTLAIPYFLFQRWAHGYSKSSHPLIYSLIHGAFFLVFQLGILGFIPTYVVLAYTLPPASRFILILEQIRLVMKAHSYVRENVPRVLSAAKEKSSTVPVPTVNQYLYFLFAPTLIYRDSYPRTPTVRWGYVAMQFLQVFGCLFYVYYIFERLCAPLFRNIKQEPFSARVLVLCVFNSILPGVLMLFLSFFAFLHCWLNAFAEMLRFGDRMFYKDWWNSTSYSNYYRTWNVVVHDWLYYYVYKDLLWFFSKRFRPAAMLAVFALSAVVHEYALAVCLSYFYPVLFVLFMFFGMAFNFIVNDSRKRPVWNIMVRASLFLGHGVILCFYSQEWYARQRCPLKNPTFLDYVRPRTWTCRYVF
Briefly: In vitro inhibition of Acyl coenzyme A:cholesterol acyltransferase in rat hepatic microsomes was measured by using AIV assay. The arrangement: species or system Liver.

In assay [3] the test system is Cricetinae gen. sp. Put plainly: In vivo cholesterol lowering at a single dose of 25 mg/kg in the hamster was determined. The class given is functional, Cricetulus griseus.
Assay [4] relates to Cricetinae gen. sp. Briefly: Tested for effective dose required to lower the serum cholesterol levels in hamsters. The class given is functional, Cricetulus griseus.

A word on the IC50: it is the concentration at which inhibition is half-maximal. The low end stands for higher potency, the high end for lower potency. As to `COCCOCCN(CCCCCSc1nc(-c2ccc(OC)cc2)c(-c2ccc(OC)cc2)[nH]1)c1nc2ccccc2o1`, the 50% inhibitory concentration (IC50) in assay [1] came out at 80 nM; in assay [2] it was 40 nM.
`CC(CCCSc1nc(-c2ccccc2)c(-c2ccccc2)[nH]1)(CNc1nc2ccccc2o1)c1ccccc1` (configuration not stated) came in with an IC50 in assay [1] of 5000 nM.
On the same count and under the same terms, the value for `CCCCN(CCCCCSc1nc(-c2ccc(OC)cc2)c(-c2ccc(OC)cc2)[nH]1)c1nc2cc(Cl)c([N+](=O)[O-])cc2o1` was 1000 nM.
Same read-out and setting: the value for `COc1ccc(-c2nc(SCC(C)(CSc3nc4ccccc4o3)c3ccccc3)[nH]c2-c2ccc(OC)cc2)cc1` (configuration not stated) was 3240 nM; that for `COc1ccc(-c2nc(SCCCCCSc3nc4ncncc4[nH]3)[nH]c2-c2ccc(OC)cc2)cc1` was 880 nM.
`CCCCCCCN(CCCCSc1nc(-c2ccc(OC)cc2)c(-c2ccc(OC)cc2)[nH]1)c1nc2ccccc2o1`: 500 nM corresponded to half-maximal inhibition in assay [1] (IC50).
In the case of `CCCCCCCN(CCCCCSc1nc(-c2ccc(OC)cc2)c(-c2ccc(OC)cc2)[nH]1)c1nc2ccccc2o1`, the figures for the IC50 in assay [1] and in assay [2] were 80 nM and 40 nM, respectively.
Regarding `COc1ccc(-c2nc(SCCCCCn3c(C(C)C)nc4ccccc43)[nH]c2-c2ccc(OC)cc2)cc1`, the figures for the IC50 in assay [1] and in assay [2] were 320 nM and 230 nM, respectively.
For `COc1ccc(-c2nc(SCCCCCSc3nc(-c4ccc(OC)cc4)c(-c4ccc(OC)cc4)[nH]3)[nH]c2-c2ccc(OC)cc2)cc1` the same measures were 200 nM and 220 nM.
The corresponding values for `CN(C)c1ccc(-c2nc(SCCCCCSc3nc(-c4ccc(N(C)C)cc4)c(-c4ccc(N(C)C)cc4)[nH]3)[nH]c2-c2ccc(N(C)C)cc2)cc1` are 60 nM and 90 nM.
For `c1ccc(-c2nc(SCCCCCSc3nc(-c4ccccc4)c(-c4ccccc4)[nH]3)[nH]c2-c2ccccc2)cc1` the same measures were 6920 nM and 30 nM.
In the case of `COc1ccc(-c2nc(SCCCCCn3c4ccccc4c4ccccc43)[nH]c2-c2ccc(OC)cc2)cc1`, the values for the IC50 in assay [1] and in assay [2] were 55700 nM and 50000 nM, respectively.
In assay [1], `COc1ccc(-c2nc(SCCCCCSc3ncnc4nc[nH]c34)[nH]c2-c2ccc(OC)cc2)cc1` had an IC50 of 3650 nM.
As to `COc1ccc(-c2nc(SCCCCCn3c(Nc4ccccc4)nc4ccccc43)[nH]c2-c2ccc(OC)cc2)cc1`, the figures for the IC50 in assay [1] and in assay [2] were 640 nM and 750 nM, respectively.
As for `CN(C)c1ccc(-c2nc(SCCCCCNc3nc4ccccc4o3)[nH]c2-c2ccc(N(C)C)cc2)cc1`, in assay [1], the IC50 came out at 90 nM.
In the case of `CCN(CCCCCSc1nc(-c2ccccc2)c(-c2ccc(SC)cc2)[nH]1)c1nc2ccccc2o1`, the IC50 in assay [1] is 500 nM; in assay [2], 700 nM.
Take `Cc1cc(C)n(CCCCCSc2nc(-c3ccc(N(C)C)cc3)c(-c3ccc(N(C)C)cc3)[nH]2)n1`: in assay [1], the midpoint of inhibition, the IC50, lay at 250 nM.
For `CC(C)c1nc2ccccc2n1CCCCCSc1nc(-c2ccc(N(C)C)cc2)c(-c2ccc(N(C)C)cc2)[nH]1`, the values for the IC50 in assay [1] and in assay [2] were 80 nM and 400 nM, respectively.
On to `COc1ccc(-c2nc(SCCCCCSc3nc4c([nH]3)c(=O)n(C)c(=O)n4C)[nH]c2-c2ccc(OC)cc2)cc1`, for which the IC50 in assay [1] is 8330 nM.
For the compound `c1ccc(-c2nc(SCc3cccc(C4(CNc5nc6ccccc6o5)CCCC4)c3)[nH]c2-c2ccccc2)cc1`, in assay [1], half-maximal inhibition (IC50) was put at 5900 nM.
For `c1ccc(-c2nc(SCCCCCSc3ncnc4nc[nH]c34)[nH]c2-c2ccccc2)cc1`, inhibition in assay [1] was half-maximal at 7510 nM (IC50).
In the case of `COc1ccc(-c2nc(SCCCCCn3c(SC)nc4ccccc43)[nH]c2-c2ccc(OC)cc2)cc1`, the figures for the IC50 in assay [1] and in assay [2] were 950 nM and 1400 nM, respectively.
Consider `CCN(CCCCCSc1nc(-c2ccc(N(C)C)cc2)c(-c2ccc(N(C)C)cc2)[nH]1)c1nc2ccccc2o1`, for which, in assay [1], the midpoint of inhibition, the IC50, lay at 50 nM.
For `CC(C)c1nc2ccccc2n1CCCCCSc1nc(-c2ccccc2)c(-c2ccccc2)[nH]1`, the IC50 in assay [1] amounted to 710 nM; in assay [2], 690 nM.
The corresponding values for `CCCCN(CCCCCSc1nc(-c2ccc(OC)cc2)c(-c2ccc(OC)cc2)[nH]1)c1nc2cc(C(C)(C)C)ccc2o1` are 70 nM and 80 nM.
Compound `CCCCCCCN(CCCCCSc1nc(-c2ccccc2)c(-c2ccccc2)[nH]1)c1nc2ccccc2s1` showed an IC50 in assay [1] of 660 nM.
With `COc1ccc(-c2nc(SCCCCCSc3nc4ccccc4[nH]3)[nH]c2-c2ccc(OC)cc2)cc1`, the 50% inhibitory concentration (IC50) in assay [1] amounted to 830 nM; in assay [2], 630 nM.
With `CCCCCCCN(CCCCCSc1nc(-c2ccccc2)c(-c2ccccc2)[nH]1)c1nc2ccccc2o1`, the half-maximal inhibitory concentration (IC50) amounted to 20 nM in assay [1] and 300 nM in assay [2]. This compound also yielded an Activity in the assay on Cricetinae gen. sp. [3] of 30%.
In the case of `CCCCCCCN(CCCCCSc1nc(-c2ccc(OC)cc2)c(-c2ccc(OC)cc2)[nH]1)c1nc2ccccc2[nH]1`, the IC50 in assay [1] is 490 nM; in assay [2], 90 nM.
For `CCN(CCCCCSc1nc(-c2ccc(OC)cc2)c(-c2ccc(OC)cc2)[nH]1)c1nc2ccccc2o1` the same measures were 90 nM and 140 nM.
Take `CCCCN(CCCCCSc1nc(-c2ccc(OC)cc2)c(-c2ccc(OC)cc2)[nH]1)c1nc2ccccc2o1`: the IC50 turned out to be 70 nM in assay [1] and 80 nM in assay [2].
Broadly, the ED50 is the dose at which the effect has come halfway, by size or by number of responders. The compound `CCCCCCCN(CCCCCSc1nc(-c2ccccc2)c(-c2ccccc2)[nH]1)C(=O)Nc1ccc(F)cc1F` [LECIMIBIDE] gave an ED50 in the assay with Cricetinae gen. sp. [4] of 3 mg/kg. In assay [1], this compound registered an IC50 of 1000 nM.
